Test results as given in publication PMC10786919, “Design-rules for stapled peptides with in vivo activity and their application to Mdm2/X antagonists” (Nature Communications, 2024).
Converted amounts (≈) assume the structure as drawn. Read-outs that look alike come from different tables or passages of the source. Positions of bridges follow the written chain, without caps; N, C: chain ends. Non-standard residues stand in square brackets, D forms with d. Residues, ends and D or L forms follow the SMILES beside them. Lys(N3) = [N-]=[N+]=NCCCC[C@H](N)C(=O)O; R8 = C=CCCCCCC[C@@](C)(N)C(=O)O; Cba = N[C@@H](CC1CCC1)C(=O)O; S5 = C=CCCC[C@](C)(N)C(=O)O; βAla = NCCC(=O)O; Sar = CNCC(=O)O

What was measured:
[1] = Experimental LogD (partition coefficient); conditions: for logD: not stated, Partition Coeff LogD
EPSA = format: physicochemical
in vitro = conditions: Nanoclick permeability assay EC50
How it was run: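 Azido-peptide permeability was read as loss of NanoBRET signal (donor 450 nm, acceptor 610 nm) after adding NanoBret618-azide at 10 μM final.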

[2] = Solubility assay (kinetic solubility, PBS pH 7); format: physicochemical; conditions: pH 7, PBS; for solubility kinetic: pH 7, aqueous buffer, kinetic from dmso stock, read-out: Solubility
How it was run: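 Reference standards were made by diluting the 10 mM stock to 100 µM in acetonitrile:methanol:DMSO 10:80:10. Solubility in µM was calculated as the sample peak area divided by the standard peak area, multiplied by the standard concentration.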

HCT116 cells = assay: Lactate dehydrogenase (LDH) release assay; format: cell-based
How it was run: (§1)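 HCT116 cells stably carrying a p53-responsive β-lactamase reporter, seeded at 8000 cells/well, exposed to compound with 0.5% final DMSO. LDH release read with the CytoTox-ONE membrane integrity kit. Values are geometric means of at least three biological replicates.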

[3] = Lactate dehydrogenase (LDH) release assay; format: cell-based; conditions: LDH: Cytotoxicity assay: EC50
How it was run: as §1

CC(=O)N[C@@H](CCCCN=[N+]=[N-])C(=O)N[C@@H](CCCCN)C(=O)N[C@@H](CC(C)C)C(=O)N[C@H](C(=O)N[C@@H](Cc1ccccc1)C(=O)N[C@]1(C)CCCCCCC=CCCC[C@@](C)(C(=O)N[C@@H](CO)C(=O)N[C@@H](C)C(=O)N[C@@H](C)C(N)=O)NC(=O)[C@H](CC2CCC2)NC(=O)[C@H](CCC(N)=O)NC(=O)[C@H](C)NC(=O)[C@H](Cc2c[nH]c3ccccc23)NC(=O)[C@H](Cc2ccc(O)cc2)NC(=O)[C@H](CCC(=O)O)NC1=O)[C@@H](C)O [MP-025]
logD [1]: 2.83 | EPSA (EPSA; EPSA): 205 A^2 | cell entry EC50 (in vitro): 1.17 µM | solubility kinetic [2]: 3 µM (≈ 6.08 µg/mL) | LDH: Cytotoxicity assay: % Effect (HCT116 cells): 3.386% | EC50 [3]: > 50 µM

CC(=O)N[C@@H](CCCCN=[N+]=[N-])C(=O)NCCC(=O)N[C@@H](CC(C)C)C(=O)N[C@H](C(=O)N[C@@H](CCC(=O)O)C(=O)N[C@]1(C)CCCCCCC=CCCC[C@@](C)(C(=O)N[C@@H](CO)C(=O)N[C@@H](C)C(=O)N[C@@H](C)C(N)=O)NC(=O)[C@H](CC2CCC2)NC(=O)[C@H](CCC(N)=O)NC(=O)[C@H](C)NC(=O)[C@H](Cc2c[nH]c3ccccc23)NC(=O)[C@H](Cc2ccc(O)cc2)NC(=O)[C@H](Cc2ccccc2)NC1=O)[C@@H](C)O [MP-123] (Ac-[Lys(N3)][βAla]LTE[R8]FYWAQ[Cba][S5]SAA-NH2; staple 6-13)
logD [1]: 2.66 | EPSA (EPSA; EPSA): 197 A^2 | cell entry EC50 (in vitro): 0.682 µM | solubility kinetic [2]: 2 µM (≈ 3.94 µg/mL) | EC50 [3]: > 50.7 µM

CC(=O)N[C@@H](CCCCN=[N+]=[N-])C(=O)NCCC(=O)N[C@@H](CC(C)C)C(=O)N[C@H](C(=O)N[C@@H](Cc1ccccc1)C(=O)N[C@@]1(C)CCCCCCC=CCCC[C@@](C)(C(=O)N[C@@H](CO)C(=O)N[C@@H](C)C(=O)N[C@@H](C)C(N)=O)NC(=O)[C@H](CC2CCC2)NC(=O)[C@H](CCC(N)=O)N(C)C(=O)[C@H](C)NC(=O)[C@H](Cc2c[nH]c3ccccc23)NC(=O)[C@H](Cc2ccc(O)cc2)NC(=O)[C@H](CCC(=O)O)NC1=O)[C@@H](C)O [MP-297]
logD [1]: 2.5 | EPSA (EPSA; EPSA): 183 A^2 | cell entry EC50 (in vitro): 1.53 µM | solubility kinetic [2]: 108 µM (≈ 213 µg/mL) | EC50 [3]: > 50.7 µM

CC(=O)N[C@H](C)C(=O)N[C@H](C)C(=O)N[C@H](C)C(=O)N[C@H](C)C(=O)N[C@H](C)C(=O)N[C@H](C)C(=O)N[C@H](C)C(=O)N[C@H](C)C(=O)N[C@@H](CC(C)C)C(=O)N[C@H](C(=O)N[C@@H](Cc1ccccc1)C(=O)N[C@]1(C)CCCCCCC=CCCC[C@@](C)(C(=O)N[C@@H](CO)C(=O)N[C@@H](C)C(=O)N[C@@H](C)C(N)=O)NC(=O)[C@H](CC2CCC2)NC(=O)[C@H](CCC(N)=O)NC(=O)[C@H](C)NC(=O)[C@H](Cc2c[nH]c3ccccc23)NC(=O)[C@H](Cc2ccc(O)cc2)NC(=O)[C@H](CCC(=O)O)NC1=O)[C@@H](C)O [MP-414] (Ac-[dA][dA][dA][dA][dA][dA][dA][dA]LTF[R8]EYWAQ[Cba][S5]SAA-NH2; staple 12-19)
logD [1]: 2.65 | EPSA (EPSA; EPSA): 210 A^2 | solubility kinetic [2]: 35 µM (≈ 81 µg/mL) | LDH: Cytotoxicity assay: % Effect (HCT116 cells): -4.321% | EC50 [3]: > 50.7 µM

CC(=O)N(C)CC(=O)N(C)CC(=O)N(C)CC(=O)N(C)CC(=O)N(C)CC(=O)N(C)CC(=O)N(C)CC(=O)N(C)CC(=O)N[C@@H](CC(C)C)C(=O)N[C@H](C(=O)N[C@@H](Cc1ccccc1)C(=O)N[C@]1(C)CCCCCCC=CCCC[C@@](C)(C(=O)N[C@@H](CO)C(=O)N[C@@H](C)C(=O)N[C@@H](C)C(N)=O)NC(=O)[C@H](CC2CCC2)NC(=O)[C@H](CCC(N)=O)NC(=O)[C@H](C)NC(=O)[C@H](Cc2c[nH]c3ccccc23)NC(=O)[C@H](Cc2ccc(O)cc2)NC(=O)[C@H](CCC(=O)O)NC1=O)[C@@H](C)O [MP-623] (Ac-[Sar][Sar][Sar][Sar][Sar][Sar][Sar][Sar]LTF[R8]EYWAQ[Cba][S5]SAA-NH2; staple 12-19)
logD [1]: 2.41 | EPSA (EPSA; EPSA): 200 A^2 | solubility kinetic [2]: 150 µM (≈ 347 µg/mL) | LDH: Cytotoxicity assay: % Effect (HCT116 cells): 3.314% | EC50 [3]: > 50.7 µM

CC(=O)N[C@@H](CCCCN=[N+]=[N-])C(=O)NCCC(=O)N[C@H](C(=O)N[C@@H](CO)C(=O)N[C@@H](Cc1ccccc1)C(=O)N[C@]1(C)CCCCCCC=CCCC[C@@](C)(C(=O)N[C@@H](CO)C(=O)N[C@@H](C)C(=O)N[C@@H](C)C(N)=O)NC(=O)[C@H](CC(C)C)NC(=O)[C@H](CC(C)C)NC(=O)[C@H](C)NC(=O)[C@H](Cc2c[nH]c3ccccc23)NC(=O)[C@H](Cc2ccc(O)cc2)NC(=O)[C@H](CCC(=O)O)NC1=O)[C@@H](C)O [MP-686]
logD [1]: 2.7 | EPSA (EPSA; EPSA): 193 A^2 | cell entry EC50 (in vitro): 0.0386 µM | solubility kinetic [2]: 2 µM (≈ 3.83 µg/mL) | EC50 [3]: > 50.7 µM

CC(=O)N[C@@H](CCCCN=[N+]=[N-])C(=O)NCCC(=O)N[C@@H](CC(C)C)C(=O)N[C@H](C(=O)N[C@@H](Cc1ccccc1)C(=O)N[C@]1(C)CCCCC#CC#CCCC[C@@](C)(C(=O)N[C@@H](CO)C(=O)N[C@@H](C)C(=O)N[C@@H](C)C(N)=O)NC(=O)[C@H](CC2CCC2)NC(=O)[C@H](CCC(N)=O)NC(=O)[C@H](C)NC(=O)[C@H](Cc2c[nH]c3ccccc23)NC(=O)[C@H](Cc2ccc(O)cc2)NC(=O)[C@H](CCC(=O)O)NC1=O)[C@@H](C)O [MP-806]
logD [1]: 2.44 | EPSA (EPSA; EPSA): 203 A^2 | cell entry EC50 (in vitro): 5.58 µM | solubility kinetic [2]: 34 µM (≈ 66.8 µg/mL) | EC50 [3]: > 50.7 µM

CC(=O)N[C@@H](CS)C(=O)N[C@@H](CCCCN=[N+]=[N-])C(=O)NCCC(=O)N[C@@H](C)C(=O)N[C@H](C(=O)N[C@@H](Cc1ccccc1)C(=O)N[C@]1(C)CCCCCCC=CCCC[C@@](C)(C(=O)N[C@@H](C)C(=O)N[C@@H](C)C(=O)N[C@@H](C)C(N)=O)NC(=O)[C@H](CC2CCC2)NC(=O)[C@H](C)NC(=O)[C@H](C)NC(=O)[C@H](Cc2c[nH]c3ccccc23)NC(=O)[C@H](Cc2ccc(O)cc2)NC(=O)[C@H](C)NC1=O)[C@@H](C)O [MP-987] (Ac-C[Lys(N3)][βAla]ATF[R8]AYWAA[Cba][S5]AAA-NH2; staple 7-14)
logD [1]: 1.12 | EPSA (EPSA; EPSA): 180 A^2 | cell entry EC50 (in vitro): 0.217 µM | solubility kinetic [2]: 12 µM (≈ 22.8 µg/mL) | EC50 [3]: > 50 µM

CC(=O)N[C@@H](CCCNC(=N)N)C(=O)NCCCCCC(=O)N[C@@H](CC(C)C)C(=O)N[C@H](C(=O)N[C@@H](Cc1ccccc1)C(=O)N[C@]1(C)CCCCCCC=CCCC[C@@](C)(C(=O)N[C@@H](CO)C(=O)N[C@@H](C)C(=O)N[C@@H](C)C(N)=O)NC(=O)[C@H](CC2CCC2)NC(=O)[C@H](CCC(N)=O)NC(=O)[C@H](C)NC(=O)[C@H](Cc2c[nH]c3ccccc23)NC(=O)[C@H](Cc2ccc(O)cc2)NC(=O)[C@H](CCC(=O)O)NC1=O)[C@@H](C)O [MP-4001]
logD [1]: 2.64 | EPSA (EPSA; EPSA): 207 A^2 | solubility kinetic [2]: 4 µM (≈ 8.06 µg/mL) | LDH: Cytotoxicity assay: % Effect (HCT116 cells): -1.283% | EC50 [3]: > 50 µM

CC(=O)N[C@@H](CCCNC(=N)N)C(=O)N[C@@H](CCCNC(=N)N)C(=O)NCCC(=O)N[C@@H](CC(C)C)C(=O)N[C@H](C(=O)N[C@@H](Cc1ccccc1)C(=O)N[C@]1(C)CCCCCCC=CCCC[C@@](C)(C(=O)N[C@@H](CO)C(=O)N[C@@H](C)C(=O)N[C@@H](C)C(N)=O)NC(=O)[C@H](CC2CCC2)NC(=O)[C@H](CCC(N)=O)NC(=O)[C@H](C)NC(=O)[C@H](Cc2c[nH]c3ccccc23)NC(=O)[C@H](Cc2ccc(O)cc2)NC(=O)[C@H](CCC(=O)O)NC1=O)[C@@H](C)O [MP-4002]
logD [1]: 2.47 | EPSA (EPSA; EPSA): 212 A^2 | solubility kinetic [2]: 11 µM (≈ 23.4 µg/mL) | LDH: Cytotoxicity assay: % Effect (HCT116 cells): 50.55% | EC50 [3]: 37.7 µM

CC(=O)N[C@@H](CCCCN=[N+]=[N-])C(=O)N[C@@H](CC(C)C)C(=O)N[C@H](C(=O)N[C@@H](Cc1ccccc1)C(=O)N[C@]1(C)CCCCCCC=CCCC[C@@](C)(C(=O)N[C@@H](CCC(=O)O)C(N)=O)NC(=O)[C@H](CC2CCC2)NC(=O)[C@H](CCC(N)=O)NC(=O)[C@H](C)NC(=O)[C@H](Cc2c[nH]c3ccccc23)NC(=O)[C@H](Cc2ccc(O)cc2)NC(=O)[C@H](CCC(=O)O)NC1=O)[C@@H](C)O [MP-4008] (Ac-[Lys(N3)]LTF[R8]EYWAQ[Cba][S5]E-NH2; staple 5-12)
logD [1]: 2.48 | EPSA (EPSA): Poorly Behaved | solubility kinetic [2]: 23 µM (≈ 41.4 µg/mL) | LDH: Cytotoxicity assay: % Effect (HCT116 cells): -0.7368% | EC50 [3]: > 50 µM

CC(C)C[C@H](NC(=O)[C@@H](N)CCCCN=[N+]=[N-])C(=O)N[C@H](C(=O)N[C@@H](Cc1ccccc1)C(=O)N[C@]1(C)CCCCCCC=CCCC[C@@](C)(C(=O)N[C@@H](CCC(=O)O)C(N)=O)NC(=O)[C@H](CC2CCC2)NC(=O)[C@H](CCC(N)=O)NC(=O)[C@H](C)NC(=O)[C@H](Cc2c[nH]c3ccccc23)NC(=O)[C@H](Cc2ccc(O)cc2)NC(=O)[C@H](CCC(=O)O)NC1=O)[C@@H](C)O [MP-4009] (H-[Lys(N3)]LTF[R8]EYWAQ[Cba][S5]E-NH2; staple 5-12)
Partition Coeff LogD [1]: Poorly Behaved | EPSA (EPSA): Poorly Behaved | Solubility [2]: Poorly Behaved | LDH: Cytotoxicity assay: % Effect (HCT116 cells): -2.907% | EC50 [3]: > 50 µM
